# From patent publication US20260200897A1, “4-((5-(3-(4-(PYRIDIN-2-YL)CYCLOPENTYL)-1H-PYRAZOL-3-YL)AMINO)-BENZENESULFONAMIDE DERIVATIVES AND SIMILAR COMPOUNDS AS CDK INHIBITORS FOR THE TREATMENT OF CANCER” (BeOne Medicines I GmbH, priority 2023, published 2026)
# Tests used:
# [1] = target: CDK2/Cyclin E1 (Homo sapiens, UniProt P24941); test: CDK2/Cyclin E1 TR-FRET biochemical assay, 0.060 mM ATP; settings: 0.15 μM Rb (Ser780)-biotin substrate, 120 min reaction, Table 1
# Description: (§1) Compounds disclosed herein were tested for inhibition of CDK2/Cyclin E1 or CDK1/Cyclin B1 kinase in an assay based on the time-resolved fluorescence-resonance energy transfer (TR-FRET) methodology. The assay was carried out in 384-well low volume black plates in a reaction mixture containing CDK2/Cyclin E1 or CDK1/Cyclin B1, 0.060 mM ATP for CDK2/Cyclin E1 or 0.015 mM ATP for CDK1/Cyclin B1, 0.15 μM Rb (Ser780)-biotin substrate and 0-10 μM compound in buffer containing 50 mM HEPES pH7.0, 0.02% NaN3, 0.01% BSA, 0.1 mM Orthovanadate, 50 mM MgCl2, 1 mM DTT and 0.005% Tween-20. The kinase was incubated with compound for 60 minutes at room temperature and the reaction was initiated by the addition of ATP and Rb (Ser780)-biotin substrate. After reaction at room temperature for 120 minutes, an equal volume of stop/detection solution was added according to the manufacture's instruction (Cisbio Bioassays). The stop/detection solution contained Streptavidin-XL665 and Anti-pRb (Ser780) mAb-Eu Cryptate in Detection buffer (Cisbio Bioassays). Plates were incubated at room temperature for 60 minutes, and the TR-FRET signals (ex337 nm, em665 nm/620 nm) were recorded on a PHERAstar FSX plate reader (BMG Labtech). The inhibition percentage of CDK2/Cyclin E1 or CDK1/Cyclin B1 kinase activity in presence of increasing concentrations of compounds was calculated based on the ratio of fluorescence at 665 nm to that at 620 nm. The IC50 for each compound was derived from fitting the data to the four-parameter logistic equation by Dotmatics.
# [2] = target: CDK1/Cyclin B1 (Homo sapiens, UniProt P06493); test: CDK1/Cyclin B1 TR-FRET biochemical assay, 0.015 mM ATP; settings: 0.15 μM Rb (Ser780)-biotin substrate, 120 min reaction, Table 1
# CDK1/Cyclin B1, sequence (P06493 whole entry): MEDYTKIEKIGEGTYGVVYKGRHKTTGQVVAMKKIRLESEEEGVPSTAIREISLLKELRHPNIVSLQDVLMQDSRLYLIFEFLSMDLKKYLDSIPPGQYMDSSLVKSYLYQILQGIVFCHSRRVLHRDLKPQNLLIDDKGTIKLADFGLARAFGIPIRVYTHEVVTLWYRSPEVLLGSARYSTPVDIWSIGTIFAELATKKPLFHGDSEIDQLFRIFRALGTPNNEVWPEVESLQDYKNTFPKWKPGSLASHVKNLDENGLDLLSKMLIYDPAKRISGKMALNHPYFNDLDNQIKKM
# CDK1/Cyclin B1, sequence (P14635 whole entry partner): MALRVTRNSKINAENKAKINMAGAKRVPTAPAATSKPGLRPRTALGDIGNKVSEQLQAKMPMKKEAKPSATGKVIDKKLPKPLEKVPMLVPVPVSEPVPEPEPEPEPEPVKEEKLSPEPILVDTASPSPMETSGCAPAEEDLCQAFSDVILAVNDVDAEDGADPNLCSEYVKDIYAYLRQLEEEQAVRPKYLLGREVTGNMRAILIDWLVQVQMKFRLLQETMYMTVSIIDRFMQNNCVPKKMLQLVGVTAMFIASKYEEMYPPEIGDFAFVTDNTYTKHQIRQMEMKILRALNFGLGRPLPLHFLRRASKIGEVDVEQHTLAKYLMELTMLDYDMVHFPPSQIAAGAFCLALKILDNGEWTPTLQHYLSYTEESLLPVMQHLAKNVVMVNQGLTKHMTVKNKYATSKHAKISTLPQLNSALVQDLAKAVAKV
# Description: as §1
IC50 [1] [nM],IC50 [2] [nM],SMILES
18,671,"CC(C)(C)c1n[nH]cc1OC1CCC(c2cc(Nc3ccc4c(c3F)CNS4(=O)=O)n[nH]2)C1 (single isomer, unassigned) [Example 74b, cis-5-((5-(3-((3-(tert-butyl)-1H-pyrazol-4-yl)oxy)cyclopentyl)-1H-pyrazol-3-yl)amino)-4-fluoro-2,3-dihydrobenzo[d]isothiazole 1,1-dioxide]"
12,445,"CC(C)c1n[nH]cc1O[C@@H]1CC[C@H](c2cc(Nc3ccc4c(c3F)CNS4(=O)=O)n[nH]2)C1 (relative stereo) [Example 73, cis-4-fluoro-5-((5-(3-((3-isopropyl-1H-pyrazol-4-yl)oxy)cyclopentyl)-1H-pyrazol-3-yl)amino)-2,3-dihydrobenzo[d]isothiazole 1,1-dioxide]"
21,509,"CCc1cnc(C2CCC(c3cc(Nc4ccc5c(c4F)CNS5(=O)=O)n[nH]3)C2)o1 (centres unmarked) [Example 92, 5-((5-(3-(5-ethyloxazol-2-yl)cyclopentyl)-1H-pyrazol-3-yl)amino)-4-fluoro-2,3-dihydrobenzo[d]isothiazole 1,1-dioxide]"
53,1070,"Cc1n[nH]c(C)c1O[C@@H]1CC[C@H](c2cc(Nc3ccc4c(c3F)CNS4(=O)=O)n[nH]2)C1 (relative stereo) [Example 75, cis-5-((5-(3-((3,5-dimethyl-1H-pyrazol-4-yl)oxy)cyclopentyl)-1H-pyrazol-3-yl)amino)-4-fluoro-2,3-dihydrobenzo[d]isothiazole 1,1-dioxide]"
1.3,53,"CC(C)(C)c1cnc(C2CCC(c3cc(Nc4ccc5c(c4F)CNS5(=O)=O)n[nH]3)C2)o1 (single isomer, unassigned) [Example 91a, cis-5-((5-(3-(5-(tert-butyl)oxazol-2-yl)cyclopentyl)-1H-pyrazol-3-yl)amino)-4-fluoro-2,3-dihydrobenzo[d]isothiazole 1,1-dioxide]"
6.2,82,"CCc1cnc(C2CCC(c3cc(Nc4ccc5c(c4)CS(=O)(=O)N5)n[nH]3)C2)o1 (centres unmarked) [Example 133, 5-((5-(3-(5-ethyloxazol-2-yl)cyclopentyl)-1H-pyrazol-3-yl)amino)-1,3-dihydrobenzo[c]isothiazole 2,2-dioxide]"
602,> 10000,"CC(C)N1CC(=O)N([C@H]2CC[C@@H](c3cc(Nc4ccc5c(c4F)CNS5(=O)=O)n[nH]3)C2)C1=O (relative stereo) [Example 82, cis-3-(3-(3-((4-fluoro-1,1-dioxido-2,3-dihydrobenzo[d]isothiazol-5-yl)amino)-1H-pyrazol-5-yl)cyclopentyl)-1-isopropylimidazolidine-2,4-dione]"
12,198,"CCOC(=O)c1cn[nH]c1O[C@H]1CC[C@@H](c2cc(Nc3ccc4c(c3F)CNS4(=O)=O)n[nH]2)C1 (relative stereo) [Example 68, cis-ethyl 5-((3-(3-((4-fluoro-1,1-dioxido-2,3-dihydrobenzo[d]isothiazol-5-yl)amino)-1H-pyrazol-5-yl)cyclopentyl)oxy)-1H-pyrazole-4-carboxylate]"

# The next lines start with the compound.
SMILES,IC50 [1] [nM],IC50 [2] [nM]
"Cc1cc(O[C@@H]2CC[C@H](c3cc(Nc4ccc5c(c4F)CNS5(=O)=O)n[nH]3)C2)n(-c2ccccc2)n1 (relative stereo) [Example 66, cis-4-fluoro-5-((5-(3-((3-methyl-1-phenyl-1H-pyrazol-5-yl)oxy)cyclopentyl)-1H-pyrazol-3-yl)amino)-2,3-dihydrobenzo[d]isothiazole 1,1-dioxide]",2530,> 10000
"CC(C)n1cnnc1O[C@@H]1CC[C@H](c2cc(Nc3ccc4c(c3F)CNS4(=O)=O)n[nH]2)C1 (relative stereo) [Example 57, cis-4-fluoro-5-((5-(3-((4-isopropyl-4H-1,2,4-triazol-3-yl)oxy)cyclopentyl)-1H-pyrazol-3-yl)amino)-2,3-dihydrobenzo[d]isothiazole 1,1-dioxide]",341,8300
"O=c1ccon1[C@H]1CC[C@@H](c2cc(Nc3ccc4c(c3F)CNS4(=O)=O)n[nH]2)C1 (relative stereo) [Example 49, cis-2-(3-(3-((4-fluoro-1,1-dioxido-2,3-dihydrobenzo[d]isothiazol-5-yl)amino)-1H-pyrazol-5-yl)cyclopentyl)isoxazol-3 (2H)-one]",478,2560
"CC(C)c1ccnnc1O[C@@H]1CC[C@H](c2cc(Nc3ccc4c(c3F)CNS4(=O)=O)n[nH]2)C1 (relative stereo) [Example 27, cis-4-fluoro-5-((5-(3-((4-isopropylpyridazin-3-yl)oxy)cyclopentyl)-1H-pyrazol-3-yl)amino)-2,3-dihydrobenzo[d]isothiazole 1,1-dioxide]",0.7,3.7
"C=C(C)c1cnn([C@H]2CC[C@@H](c3cc(Nc4ccc5c(c4F)CNS5(=O)=O)n[nH]3)C2)c(=O)c1 (relative stereo) [Example 32, cis-2-(3-(3-((4-fluoro-1,1-dioxido-2,3-dihydrobenzo[d]isothiazol-5-yl)amino)-1H-pyrazol-5-yl)cyclopentyl)-5-(prop-1-en-2-yl)pyridazin-3 (2H)-one]",48,3570
"O=c1c(-c2ccccc2)ccnn1[C@H]1CC[C@@H](c2cc(Nc3ccc4c(c3F)CNS4(=O)=O)n[nH]2)C1 (relative stereo) [Example 30, cis-2-(3-(3-((4-fluoro-1,1-dioxido-2,3-dihydrobenzo[d]isothiazol-5-yl)amino)-1H-pyrazol-5-yl)cyclopentyl)-4-phenylpyridazin-3 (2H)-one]",2080,> 10000
"O=c1c(C2CC2)csn1[C@H]1CC[C@@H](c2cc(Nc3ccc4c(c3F)CNS4(=O)=O)n[nH]2)C1 (relative stereo) [Example 54, cis-4-cyclopropyl-2-(3-(3-((4-fluoro-1,1-dioxido-2,3-dihydrobenzo[d]isothiazol-5-yl)amino)-1H-pyrazol-5-yl)cyclopentyl)isothiazol-3 (2H)-one]",49,418
"O=S1(=O)NCc2c1ccc(Nc1cc([C@H]3CC[C@@H](Oc4cccnc4)C3)[nH]n1)c2F (relative stereo) [Example 39, cis-4-fluoro-5-((5-(3-(pyridin-3-yloxy)cyclopentyl)-1H-pyrazol-3-yl)amino)-2,3-dihydrobenzo[d]isothiazole 1,1-dioxide]",55,2330
"O=S1(=O)NCc2c1ccc(Nc1cc([C@H]3CC[C@@H](Oc4ccsn4)C3)[nH]n1)c2F (relative stereo) [Example 50, cis-4-fluoro-5-((5-(3-(isothiazol-3-yloxy)cyclopentyl)-1H-pyrazol-3-yl)amino)-2,3-dihydrobenzo[d]isothiazole 1,1-dioxide]",33,1320
"Cn1ccc(O[C@@H]2CC[C@H](c3cc(Nc4ccc5c(c4F)CNS5(=O)=O)n[nH]3)C2)n1 (relative stereo) [Example 64, cis-4-fluoro-5-((5-(3-((1-methyl-1H-pyrazol-3-yl)oxy)cyclopentyl)-1H-pyrazol-3-yl)amino)-2,3-dihydrobenzo[d]isothiazole 1,1-dioxide]",296,1900
"CC(C)(C)c1cn[nH]c1O[C@@H]1CC[C@H](c2cc(Nc3ccc4c(c3F)CNS4(=O)=O)n[nH]2)C1 (relative stereo) [Example 61, cis-5-((5-(3-((4-(tert-butyl)-1H-pyrazol-5-yl)oxy)cyclopentyl)-1H-pyrazol-3-yl)amino)-4-fluoro-2,3-dihydrobenzo[d]isothiazole 1,1-dioxide]",1,56
"CC(C)c1cn[nH]c1O[C@@H]1CC[C@H](c2cc(Nc3ccc4c(c3F)CNS4(=O)=O)n[nH]2)C1 (relative stereo) [Example 60, cis-4-fluoro-5-((5-(3-((4-isopropyl-1H-pyrazol-5-yl)oxy)cyclopentyl)-1H-pyrazol-3-yl)amino)-2,3-dihydrobenzo[d]isothiazole 1,1-dioxide]",12,732
"CC(C)(C)c1ncccc1O[C@@H]1CC[C@H](c2cc(Nc3ccc4c(c3F)CNS4(=O)=O)n[nH]2)C1 (relative stereo) [Example 45, cis-5-((5-(3-((2-(tert-butyl)pyridin-3-yl)oxy)cyclopentyl)-1H-pyrazol-3-yl)amino)-4-fluoro-2,3-dihydrobenzo[d]isothiazole 1,1-dioxide]",764,7120
"Cc1ccncc1O[C@@H]1CC[C@H](c2cc(Nc3ccc4c(c3F)CNS4(=O)=O)n[nH]2)C1 (relative stereo) [Example 42, cis-4-fluoro-5-((5-(3-((4-methylpyridin-3-yl)oxy)cyclopentyl)-1H-pyrazol-3-yl)amino)-2,3-dihydrobenzo[d]isothiazole 1,1-dioxide]",171,531
